The text below walks through data of patent publication US20250353891A1 (MEDIMMUNE LIMITED, priority 2022, published 2025).

The target in assay [1] is human GLP-1 receptor (hGLP-1R) (Homo sapiens, UniProt P43220). Briefly: cAMP production (HTRF) in CHO cells expressing hGLP-1R. It counts as cell-based. Set-up: expressed in transfected cells. The conditions noted are these: for EC50: Table 6, peptides modified at position 17, cAMP in CHO hGLP-1R cells, geometric mean, read-out: hGLP-1R EC50; for % Relative Potency Ratio: Table 6, % GLP-1R activity relative to GLP-1 / % GlucR activity relative to glucagon. In a few lines: (§1)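 Potency values represent EC50 from 4-parameter logistic curves of HTRF % Delta F signal. Receptor-expressing CHO cells (hGCGR 2×10^5 cells/mL, hGLP-1R 1×10^5 cells/mL) were exposed for 30 min at room temperature before two-step cAMP detection.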
Chain of human GLP-1 receptor (hGLP-1R) (P43220 24-463): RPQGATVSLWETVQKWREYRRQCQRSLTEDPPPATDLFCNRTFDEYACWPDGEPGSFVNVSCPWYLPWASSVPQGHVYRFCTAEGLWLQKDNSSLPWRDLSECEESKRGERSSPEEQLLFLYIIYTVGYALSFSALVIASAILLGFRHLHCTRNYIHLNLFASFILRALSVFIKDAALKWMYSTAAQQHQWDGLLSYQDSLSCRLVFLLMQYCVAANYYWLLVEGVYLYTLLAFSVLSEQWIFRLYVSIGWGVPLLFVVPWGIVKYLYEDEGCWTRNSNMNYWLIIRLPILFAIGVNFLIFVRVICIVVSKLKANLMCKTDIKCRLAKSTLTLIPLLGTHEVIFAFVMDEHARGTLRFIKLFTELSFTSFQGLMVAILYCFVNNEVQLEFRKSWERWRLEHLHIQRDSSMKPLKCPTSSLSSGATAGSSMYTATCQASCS

Assay [2] deals with human glucagon receptor (hGCGR) (Homo sapiens, UniProt P47871). Description: cAMP production (HTRF) in CHO cells expressing hGCGR. The class given is cell-based. Further details: expressed in transfected cells. As to conditions: Table 6, peptides modified at position 17; cAMP in CHO hGCGR cells; geometric mean; read-out: hGluc-R EC50. In a few lines: as §1
Chain of human glucagon receptor (hGCGR) (P47871 26-477): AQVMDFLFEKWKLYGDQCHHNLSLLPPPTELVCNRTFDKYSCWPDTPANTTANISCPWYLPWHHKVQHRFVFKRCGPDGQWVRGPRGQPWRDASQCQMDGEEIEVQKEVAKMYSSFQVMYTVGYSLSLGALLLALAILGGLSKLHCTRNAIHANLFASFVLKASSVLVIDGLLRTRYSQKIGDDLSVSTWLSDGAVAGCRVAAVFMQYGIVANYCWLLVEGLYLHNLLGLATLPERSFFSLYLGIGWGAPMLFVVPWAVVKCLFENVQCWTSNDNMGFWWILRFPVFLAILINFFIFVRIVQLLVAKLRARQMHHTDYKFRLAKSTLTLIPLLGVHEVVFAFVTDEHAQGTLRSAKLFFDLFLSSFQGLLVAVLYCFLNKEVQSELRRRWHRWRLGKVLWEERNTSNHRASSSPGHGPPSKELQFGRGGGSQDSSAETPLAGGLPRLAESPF

Starred links: 1 amine or outer side, 2 acyl side, 3 side chain; linkers in the order of their positions; H or OH if unused. Non-standard residues stand in square brackets, D forms with d. Residues, ends and D or L forms follow the SMILES beside them. Groups on a side chain read outwards from the residue. *: point of attachment. C20 diacid = O=C(O)CCCCCCCCCCCCCCCCCCC(=O)*; C18 diacid = O=C(O)CCCCCCCCCCCCCCCCC(=O)*; γGlu = O=C(O)[C@H](CCC(=O)[*:2])N[*:1]; αMeF = C[C@](N)(Cc1ccccc1)C(=O)O; AEEA = NCCOCCOCC(=O)O; Aib = CC(C)(N)C(=O)O

Take `CC(C)C[C@H](NC(=O)[C@H](Cc1c[nH]c2ccccc12)NC(=O)[C@H](CCC(N)=O)NC(=O)[C@@H](NC(=O)[C@H](Cc1ccccc1)NC(=O)[C@H](CC(=O)O)NC(=O)[C@H](CCCNC(=N)N)NC(=O)[C@H](C)NC(=O)[C@H](C)NC(=O)[C@H](CCCCNC(=O)COCCOCCNC(=O)COCCOCCNC(=O)CC[C@H](NC(=O)CCCCCCCCCCCCCCCCCCC(=O)O)C(=O)O)NC(=O)[C@@H](NC(=O)[C@H](CC(=O)O)NC(=O)[C@H](CC(C)C)NC(=O)[C@](C)(Cc1ccccc1)NC(=O)[C@H](CCCCN)NC(=O)[C@H](CO)NC(=O)[C@@H](NC(=O)[C@H](CC(=O)O)NC(=O)[C@H](CO)NC(=O)[C@@H](NC(=O)[C@H](Cc1ccccc1)NC(=O)[C@@H](NC(=O)CNC(=O)[C@H](CCC(N)=O)NC(=O)C(C)(C)NC(=O)[C@@H](N)Cc1c[nH]cn1)[C@@H](C)O)[C@@H](C)O)C(C)C)[C@@H](C)O)C(C)C)C(=O)N[C@@H](CC(C)C)C(=O)N[C@@H](CCC(=O)O)C(=O)NC(C)(C)C(=O)NCC(N)=O` [Peptide 515] (H-H[Aib]QGTFTSDVSK[αMeF]LDTK([AEEA-AEEA-γGlu-C20 diacid])AARDFVQWLLE[Aib]G-NH2; N-terminus assumed): in assay [1], the EC50 stood at 0.297 nM and the “% Relative Potency Ratio” value was determined as 17.7. Besides, the EC50 in assay [2] was 2.66 nM.
Consider `CC(C)C[C@H](NC(=O)[C@H](CC(C)C)NC(=O)[C@H](Cc1c[nH]c2ccccc12)NC(=O)[C@H](CCCNC(=N)N)NC(=O)[C@@H](NC(=O)[C@H](Cc1ccccc1)NC(=O)[C@H](CC(=O)O)NC(=O)[C@H](CCC(N)=O)NC(=O)[C@H](C)NC(=O)[C@H](CCCNC(=N)N)NC(=O)[C@H](CCCCNC(=O)COCCOCCNC(=O)COCCOCCNC(=O)CC[C@H](NC(=O)CCCCCCCCCCCCCCCCCCC(=O)O)C(=O)O)NC(=O)[C@H](CO)NC(=O)[C@H](CCC(=O)O)NC(=O)[C@H](CC(C)C)NC(=O)[C@](C)(Cc1ccccc1)NC(=O)[C@H](CCCCN)NC(=O)[C@H](CO)NC(=O)[C@@H](NC(=O)[C@H](CC(=O)O)NC(=O)[C@H](CO)NC(=O)[C@@H](NC(=O)[C@H](Cc1ccccc1)NC(=O)[C@@H](NC(=O)CNC(=O)[C@H](CCC(N)=O)NC(=O)C(C)(C)NC(=O)[C@@H](N)Cc1c[nH]cn1)[C@@H](C)O)[C@@H](C)O)C(C)C)C(C)C)C(=O)N[C@@H](C)C(=O)NC(C)(C)C(=O)NCC(N)=O` [Peptide 516] (H-H[Aib]QGTFTSDVSK[αMeF]LESK([AEEA-AEEA-γGlu-C20 diacid])RAQDFVRWLLA[Aib]G-NH2; N-terminus assumed), for which, in assay [1], the EC50 stood at 0.137 nM and the “% Relative Potency Ratio” value stood at 11.3. Moreover, the EC50 in assay [2] was determined as 0.785 nM.
Turning to `CC[C@H](C)[C@H](NC(=O)[C@H](Cc1ccccc1)NC(=O)[C@H](CCC(=O)O)NC(=O)[C@H](CCCNC(=N)N)NC(=O)[C@H](C)NC(=O)[C@H](C)NC(=O)[C@H](CCCCNC(=O)COCCOCCNC(=O)COCCOCCNC(=O)CC[C@H](NC(=O)CC[C@H](NC(=O)CCCCCCCCCCCCCCCCC(=O)O)C(=O)O)C(=O)O)NC(=O)[C@H](C)NC(=O)[C@H](CCC(=O)O)NC(=O)[C@H](CC(C)C)NC(=O)[C@](C)(Cc1ccccc1)NC(=O)[C@H](CCCCN)NC(=O)[C@H](CO)NC(=O)[C@@H](NC(=O)[C@H](CC(=O)O)NC(=O)[C@H](CO)NC(=O)[C@@H](NC(=O)[C@H](Cc1ccccc1)NC(=O)[C@@H](NC(=O)CNC(=O)[C@H](CCC(N)=O)NC(=O)C(C)(C)NC(=O)[C@@H](N)Cc1c[nH]cn1)[C@@H](C)O)[C@@H](C)O)C(C)C)C(=O)N[C@@H](C)C(=O)N[C@@H](Cc1c[nH]c2ccccc12)C(=O)N[C@@H](CC(C)C)C(=O)N[C@@H](CC(C)C)C(=O)N[C@@H](CCC(=O)O)C(=O)N[C@H](C(N)=O)[C@@H](C)O` [Peptide 517] (H-H[Aib]QGTFTSDVSK[αMeF]LEAK([AEEA-AEEA-γGlu-γGlu-C18 diacid])AAREFIAWLLET-NH2), in assay [1], the EC50 worked out at 0.146 nM and the “% Relative Potency Ratio” value is listed as 10.0. Also, in assay [2], the EC50 is 0.738 nM.
